Assay results: patent US6376497B1, “Antifungal azole derivatives having a fluorinated vinyl group and process for preparing same” (Korea Research Institute of Chemical Technology, priority 1999, dated 2002)
In brackets after ≈: the same amount, converted by molar mass. Where two headings read alike, the source gives them in different places.

Assays:
Assay in all cases: In vitro antifungal activity, microbroth dilution MIC
Type in all cases: cell-based
[1] = system: Aspergillus furnigatus B. 19119; conditions: Aspergillus
Method in brief: (§1)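 Broth microdilution adapted from NCCLS M27, in RPMI-1640 with 0.165 M MOPS, pH 7.0. Yeast or mould inoculum at 2×10^3 CFU/ml was mixed 1:1 with DMSO-derived compound solutions (200 to 0.10 μg/ml before mixing) and incubated at 35 °C for 4 to 48 h. MIC was the concentration showing no growth.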

[2] = system: Aspergillus niger A. 16404; conditions: Aspergillus niger
Method in brief: as §1

[3] = system: Candida albicans A. 10231; conditions: Candida albicans, 4 to 48 hours
Method in brief: as §1

[4] = system: Candida albicans C1-2; conditions: Candida albicans, 4 to 48 hours
Method in brief: as §1

[5] = system: Candida albicans IFO. 1385; conditions: Candida albicans, 4 to 48 hours
Method in brief: as §1

[6] = system: Candida parapsitosis A. 7330; conditions: Candida, 4 to 48 hours
Method in brief: as §1

[7] = system: Candida pseudotropicalis K. 11658; conditions: Kluyveromyces marxianus, 4 to 48 hours
Method in brief: as §1

[8] = system: Candida tropicalis A. 13803; conditions: Candida tropicalis, 4 to 48 hours
Method in brief: as §1

[9] = system: Cryptococcus neoformans A. 34144; conditions: Cryptococcus neoformans
Method in brief: as §1

[10] = system: Cryptococcus neoformans B. 42419; conditions: Cryptococcus neoformans, 4 to 48 hours
Method in brief: as §1

[11] = system: Cryptococcus neoformans IFM. 40092; conditions: Cryptococcus neoformans
Method in brief: as §1

[12] = system: Torulopsis glabrata B. 16205; conditions: Nakaseomyces glabratus, 4 to 48 hours
Method in brief: as §1

[13] = system: Trichophyton mentagrophytes A. 9129; conditions: Trichophyton mentagrophytes
Method in brief: as §1

[14] = system: Trichophyton mentagrophytes B. 32663; conditions: Trichophyton mentagrophytes
Method in brief: as §1

[15] = A furnigatus B. 19119, RPMI-1640, 35° C., 4 to 48 hours, read-out: Minimal inhibitory concentration (MIC)
[16] = B.19119, RPMI-1640, 35° C., 4 to 48 hours, no growth observed, read-out: Minimal inhibitory concentration(MIC), A furnigatus B. 19119
[17] = B.19119, RPMI-1640, 35° C., no growth observed, read-out: Minimal inhibitory concentration (MIC), A furnigatus B. 19119
[18] = A. niger A. 16404, RPMI-1640, 35° C., 4 to 48 hours, read-out: Minimal inhibitory concentration (MIC)
[19] = A.16404, RPMI-1640, 35° C., 4 to 48 hours, no growth observed, read-out: Minimal inhibitory concentration(MIC), A. niger A. 16404
[20] = A.16404, RPMI-1640, 35° C., no growth observed, read-out: Minimal inhibitory concentration (MIC), A. niger A. 16404
[21] = A.10231, RPMI-1640, 35° C., no growth observed, read-out: Minimal inhibitory concentration(MIC), C. albicans A. 10231
[22] = C. albicans A. 10231, RPMI-1640, 35° C., read-out: Minimal inhibitory concentration (MIC)
[23] = C12, C. albicans C1-2, RPMI-1640, 35° C., read-out: Minimal inhibitory concentration (MIC)
[24] = C12, RPMI-1640, 35° C., no growth observed, read-out: Minimal inhibitory concentration(MIC), C. albicans C1-2
[25] = C. albicans IFO. 1385, RPMI-1640, 35° C., read-out: Minimal inhibitory concentration (MIC)
[26] = IFO.1385, RPMI-1640, 35° C., no growth observed, read-out: Minimal inhibitory concentration(MIC), C. albicans IFO. 1385
[27] = A.7330, RPMI-1640, 35° C., no growth observed, read-out: Minimal inhibitory concentration(MIC), C. parapsitosis A. 7330
[28] = C. parapsitosis A. 7330, RPMI-1640, 35° C., read-out: Minimal inhibitory concentration (MIC)
[29] = C. pseudotropicalis K. 11658, RPMI-1640, 35° C., read-out: Minimal inhibitory concentration (MIC)
[30] = K.11658, RPMI-1640, 35° C., no growth observed, read-out: Minimal inhibitory concentration(MIC), C. pseudotropicalis K. 11658
[31] = A.13803, RPMI-1640, 35° C., no growth observed, read-out: Minimal inhibitory concentration(MIC), C. tropicalis A. 13803
[32] = C. tropicalis A. 13803, RPMI-1640, 35° C., read-out: Minimal inhibitory concentration (MIC)
[33] = A.34144, RPMI-1640, 35° C., 4 to 48 hours, no growth observed, read-out: Minimal inhibitory concentration(MIC), Cry. neoformans A. 34144
[34] = A.34144, RPMI-1640, 35° C., no growth observed, read-out: Minimal inhibitory concentration (MIC), Cry. neoformans A. 34144
[35] = Cry. neoformans A. 34144, RPMI-1640, 35° C., 4 to 48 hours, read-out: Minimal inhibitory concentration (MIC)
[36] = B.42419, RPMI-1640, 35° C., no growth observed, read-out: Minimal inhibitory concentration(MIC), Cry. neoformans B. 42419
[37] = Cry. neoformans B. 42419, RPMI-1640, 35° C., read-out: Minimal inhibitory concentration (MIC)
[38] = Cry. neoformans IFM. 40092, RPMI-1640, 35° C., 4 to 48 hours, read-out: Minimal inhibitory concentration (MIC)
[39] = IFM.40092, RPMI-1640, 35° C., 4 to 48 hours, no growth observed, read-out: Minimal inhibitory concentration(MIC), Cry. neoformans IFM. 40092
[40] = IFM.40092, RPMI-1640, 35° C., no growth observed, read-out: Minimal inhibitory concentration (MIC), Cry. neoformans IFM. 40092
[41] = B.16205, RPMI-1640, 35° C., no growth observed, read-out: Minimal inhibitory concentration(MIC), T. glabrata B. 16205
[42] = T. glabrata B. 16205, RPMI-1640, 35° C., read-out: Minimal inhibitory concentration (MIC)
[43] = A.9129, RPMI-1640, 35° C., 4 to 48 hours, no growth observed, read-out: Minimal inhibitory concentration(MIC), T. mentagrophytes A. 9129
[44] = A.9129, RPMI-1640, 35° C., no growth observed, read-out: Minimal inhibitory concentration (MIC), T. mentagrophytes A. 9129
[45] = T. mentagrophytes A. 9129, RPMI-1640, 35° C., 4 to 48 hours, read-out: Minimal inhibitory concentration (MIC)
[46] = B.32663, RPMI-1640, 35° C., 4 to 48 hours, no growth observed, read-out: Minimal inhibitory concentration(MIC), T. mentagrophytes B. 32663
[47] = B.32663, RPMI-1640, 35° C., no growth observed, read-out: Minimal inhibitory concentration (MIC), T. mentagrophytes B. 32663
[48] = T. mentagrophytes B. 32663, RPMI-1640, 35° C., 4 to 48 hours, read-out: Minimal inhibitory concentration (MIC)

Structure (SMILES)	MIC [1, 15] [µg/mL]	MIC [1, 16] [µg/mL]	MIC [1, 17] [µg/mL]	MIC [2, 18] [µg/mL]	MIC [2, 19] [µg/mL]	MIC [2, 20] [µg/mL]	MIC [3, 21] [µg/mL]	MIC [3, 22] [µg/mL]	MIC [4, 23] [µg/mL]	MIC [4, 24] [µg/mL]	MIC [5, 25] [µg/mL]	MIC [5, 26] [µg/mL]	MIC [6, 27] [µg/mL]	MIC [6, 28] [µg/mL]	MIC [7, 29] [µg/mL]	MIC [7, 30] [µg/mL]	MIC [8, 31] [µg/mL]	MIC [8, 32] [µg/mL]	MIC [9, 33] [µg/mL]	MIC [9, 34] [µg/mL]	other results
OC(Cn1cncn1)(Cn1cncn1)c1ccc(F)cc1F [fluconazole, reference compound]	> 100	> 100	> 100	> 100	> 100	> 100	> 100	> 100	> 100	> 100	12.5 (≈ 40.8 µM)	12.5 (≈ 40.8 µM)	12.5 (≈ 40.8 µM)	12.5 (≈ 40.8 µM)	12.5 (≈ 40.8 µM)	12.5 (≈ 40.8 µM)	> 100	> 100	12.5 (≈ 40.8 µM)	12.5 (≈ 40.8 µM)	MIC [9, 35]: 12.5 µg/mL (≈ 40.8 µM); MIC [10, 36]: 25 µg/mL (≈ 81.6 µM); MIC [10, 37]: 25 µg/mL (≈ 81.6 µM); MIC [11, 38]: 3.13 µg/mL (≈ 10.2 µM); MIC [11, 39]: 3.13 µg/mL (≈ 10.2 µM); MIC [11, 40]: 3.13 µg/mL (≈ 10.2 µM); MIC [12, 41]: 100 µg/mL (≈ 327 µM); MIC [12, 42]: 100 µg/mL (≈ 327 µM); MIC [13, 43]: 50 µg/mL (≈ 163 µM); MIC [13, 44]: 50 µg/mL (≈ 163 µM); MIC [13, 45]: 50 µg/mL (≈ 163 µM); MIC [14, 46]: 12.5 µg/mL (≈ 40.8 µM); MIC [14, 47]: 12.5 µg/mL (≈ 40.8 µM); MIC [14, 48]: 12.5 µg/mL (≈ 40.8 µM)
CCC(C)n1ncn(-c2ccc(N3CCN(c4ccc(OCC5COC(Cn6cncn6)(c6ccc(Cl)cc6Cl)O5)cc4)CC3)cc2)c1=O (centres unmarked) [itraconazole, reference compound]	≤ 0.1	≤ 0.1	≤ 0.1	1.56 (≈ 2.21 µM)	1.56 (≈ 2.21 µM)	1.56 (≈ 2.21 µM)	> 100	> 100	> 100	> 100	1.56 (≈ 2.21 µM)	1.56 (≈ 2.21 µM)	0.78 (≈ 1.11 µM)	0.78 (≈ 1.11 µM)	0.39 (≈ 0.553 µM)	0.39 (≈ 0.553 µM)	> 100	> 100	0.39 (≈ 0.553 µM)	0.39 (≈ 0.553 µM)	MIC [9, 35]: 0.39 µg/mL (≈ 0.553 µM); MIC [10, 36]: 0.39 µg/mL (≈ 0.553 µM); MIC [10, 37]: 0.39 µg/mL (≈ 0.553 µM); MIC [11, 38]: ≤ 0.1 µg/mL; MIC [11, 39]: ≤ 0.1 µg/mL; MIC [11, 40]: ≤ 0.1 µg/mL; MIC [12, 41]: 50 µg/mL (≈ 70.9 µM); MIC [12, 42]: 50 µg/mL (≈ 70.9 µM); MIC [13, 43]: ≤ 0.1 µg/mL; MIC [13, 44]: ≤ 0.1 µg/mL; MIC [13, 45]: ≤ 0.1 µg/mL; MIC [14, 46]: ≤ 0.1 µg/mL; MIC [14, 47]: ≤ 0.1 µg/mL; MIC [14, 48]: ≤ 0.1 µg/mL
